Laboratory results as given in patent EP1683799A1, “3-Amino-6-aryl(or 6-heteroaryl)-4-R²-thieno[2,3-b]pyridin-2-carboxylic acid amides, pharmaceutical compositions comprising the said and their use as inhibitors of TNFalpha release” (IBFB Pharma GmbH, priority 2005, dated 2006).

System: TNFα-Freisetzung
Assay: Inhibition of TNFα release after LPS stimulation of human whole blood (ELISA)
Type: cell-based
Settings: human whole blood diluted 1:5 with RPMI 1640; LPS (Salmonella abortus equi) 1 µg/ml; 24 h at 37°C; TNFα in supernatant by ELISA; read-out: EC50 Hemmung der TNFα-Freisetzung
From the text: Methodenbeschreibung der Hemmung der TNFα Freisetzung nach LPS Stimulation von humanem Vollblut
Die Stimulierung isolierter Leukozyten für die Freisetzung von Zytokinen kann auf verschiedenen Wegen erfolgen. Lipopolysaccharide (LPS) stellen einen Stimulus für die Untersuchung der Freisetzung von TNFα dar. LPS ist Bestandteil bakterieller Zellwände und wird beim Abtöten der Bakterien (durch Antibiotika oder das natürliche Immunsystem) freigesetzt. LPS stimuliert insbesondere die Aktivität phagozytierender Leukozyten (Gewebsmakrophagen, Granulozyten, Monozyten) und verursacht die Infiltration von Leukozyten vom peripheren Blut in das betroffene Gewebe. Ein Zytokin von besonderer Bedeutung für diese Mechanismen ist TNFα, das in großen Mengen durch die betroffenen Zellen sezemiert wird. Hauptquelle dabei sind Monozyten und Makrophagen. TNFα initiiert und prolongiert den Entzündungsprozess im Zusammenspiel mit anderen Mediatoren.
Für die Untersuchung des Effektes auf die LPS-induzierte TNFα-Freisetzung wurde eine Methode verwendet, die von MARX et al. (Marx D, Tassabehji M, Heer S, Hüttenbrink KB, Szelenyi I (2002) Pulmonary Pharmacology & Therapeutics 15 7-15) beschrieben wurde. Die Methodenbeschreibung in verkürzter Darstellung: Humanes Blut verschiedener Spendern wird durch Zusatz von 10 mM Na-Citrat ungerinnbar gemacht und 1:5 mit RPMI 1640 Zellkulturmedium verdünnt. Die Verbindungen der allgemeinen Formel 1 sowie die Kontrollsubstanzen (z.B. Dexamethason) wurden den Blutproben in verschiedenen Konzentrationen hinzugefügt. 15 Minuten später wurden die Leukozyten durch Zusatz von Lipopolysacchariden (LPS) (aus Salmonella abortus equi) in einer Endkonzentration von 1 µg/ml stimuliert. Nach Inkubation der Testansätze für 24 Stunden bei 37°C. und unter 5% CO2 in wassergesättigter Luft, wurde das Blut zentrifugiert und die Konzentration an TNFα im zellfreien Überstand unter Verwendung eines käuflichen ELISA (BD Biosciences) nach Angaben des Herstellers exakt vermessen.

| SMILES | EC50 [nM] |
| --- | --- |
| NC(=O)c1sc2nc(-c3ccc4c(c3)OCCO4)cc(C(F)(F)F)c2c1N [3-Amino-6-(3,4-dioxoethylen-phenyl)-4-trifluormethyl-thieno[2,3-b]pyridin-2-carbonsäureamid] | < 1 |
| CSc1ccc(-c2cc(C(F)(F)F)c3c(N)c(C(N)=O)sc3n2)cc1 [3-Amino-6-(4-methylthio-phenyl)-4-trifluormethyl-thieno[2,3-b]pyridin-2-carbonsäureamid] | < 1 |
| Cc1ccc(-c2cc(C(F)F)c3c(N)c(C(N)=O)sc3n2)cc1 [Beispiel 1, 3-Amino-4-difluormethyl-6-(4-methyl-phenyl)thieno[2,3-b]pyridin-2-carbonsäureamid] | < 1 |
| NC(=O)c1sc2nc(-c3cccs3)cc(C(F)(F)F)c2c1N [Beispiel 2, 3-Amino-6-(2-thienyl)-4-trifluormethyl-thieno[2,3-b]pyridin-2-carbonsäureamid] | < 1 |
| NC(=O)c1sc2nc(-c3ccc4ccccc4c3)cc(C(F)(F)F)c2c1N [Beispiel 5, 3-Amino-6-(2-naphthyl)-4-trifluormethyl-thieno[2,3-b]pyridin-2-carbonsäureamid] | < 1 |
| NC(=O)c1sc2nc(-c3ccccc3)cc(C(F)(F)F)c2c1N [Beispiel 6, 3-Amino-6-phenyl-4-trifluormethyl-thieno[2,3-b]pyridin-2-carbonsäureamid] | < 1 |
| Cc1ccc(-c2cc(C(F)(F)F)c3c(N)c(C(N)=O)sc3n2)cc1 [Beispiel 7, 3-Amino-6-(4-methyl-phenyl)-4-trifluormethyl-thieno[2,3-b]pyridin-2-carbonsäureamid] | < 1 |
| CCc1ccc(-c2cc(C(F)(F)F)c3c(N)c(C(N)=O)sc3n2)cc1 [Beispiel 8, 3-Amino-6-(4-ethyl-phenyl)-4-trifluormethyl-thieno[2,3-b]pyridin-2-carbonsäureamid] | < 1 |
| CCCc1ccc(-c2cc(C(F)(F)F)c3c(N)c(C(N)=O)sc3n2)cc1 [Beispiel 9, 3-Amino-6-(4-propyl-phenyl)-4-trifluormethyl-thieno[2,3-b]pyridin-2-carbonsäureamid] | < 1 |
| CC(C)c1ccc(-c2cc(C(F)(F)F)c3c(N)c(C(N)=O)sc3n2)cc1 [Beispiel 10, 3-Amino-6-(4-isopropyl-phenyl)-4-trifluormethyl-thieno[2,3-b]pyridin-2-carbonsäureamid] | < 1 |
| COc1ccc(-c2cc(C(F)(F)F)c3c(N)c(C(N)=O)sc3n2)cc1 [Beispiel 12, 3-Amino-6-(4-methoxy-phenyl)-4-trifluormethyl-thieno[2,3-b]pyridin-2-carbonsäureamid] | < 1 |
| CCOc1ccc(-c2cc(C(F)(F)F)c3c(N)c(C(N)=O)sc3n2)cc1 [Beispiel 13, 3-Amino-6-(4-ethoxy-phenyl)-4-trifluormethyl-thieno[2,3-b]pyridin-2-carbonsäureamid] | < 1 |
| NC(=O)c1sc2nc(-c3ccc(Cl)cc3)cc(C(F)(F)F)c2c1N [Beispiel 14, 3-Amino-6-(4-chlor-phenyl)-4-trifluormethyl-thieno[2,3-b]pyridin-2-carbonsäureamid] | < 1 |
| NC(=O)c1sc2nc(-c3ccc(Br)cc3)cc(C(F)(F)F)c2c1N [Beispiel 15, 3-Amino-6-(4-brom-phenyl)-4-trifluormethyl-thieno[2,3-b]pyridin-2-carbonsäureamid] | < 1 |
| Cc1ccc(-c2cc(C(F)(F)F)c3c(N)c(C(N)=O)sc3n2)cc1C [Beispiel 16, 3-Amino-6-(3,4-dimethyl-phenyl)-4-trifluormethyl-thieno[2,3-b]pyridin-2-carbonsäureamid] | < 1 |
| NC(=O)c1sc2nc(-c3ccc4c(c3)OCO4)cc(C(F)(F)F)c2c1N [Beispiel 18, 3-Amino-6-(3,4-dioxomethylen-phenyl)-4-trifluormethyl-thieno[2,3-b]pyridin-2-carbonsäureamid] | < 1 |
| NC(=O)c1sc2nc(-c3ccc(F)cc3)cc(C(F)(F)F)c2c1N [Beispiel 22, 3-Amino-6-(4-fluor-phenyl)-4-trifluormethyl-thieno[2,3-b]pyridin-2-carbonsäureamid] | < 1 |
